{"source": "patent US20120073988A1", "about": "“Sensor for Measurement of Hydrogen Sulfide” (priority 2004, published 2012)", "key": {"[1]": {"test_system": "enzyme in the blood vessels that is responsible for H2S production (rat aorta homogenate, VSMC, intact tail artery)", "test": "Real-time H2S production in rat vascular samples supplied with L-cysteine and PLP", "assay_type": "biochemical", "conditions": "added after L-cysteine and PLP; FIG. 6", "text": "In general, the following biological samples are bathed in the potassium phosphate buffer (PBS) described above. The specific procedures are found in Doeller, J. E., Isbell, T. S., Benavides, G., Koenitzer, J., Patel, H., Patel, P. P., Lancaster, J. R. Jr., Darley-Usmar, V. M., and Kraus, D. W.; Polarographic measurement of hydrogen sulfide production and consumption by mammalian tissues; Anal. Biochem.; (2005) 341: 40-51, the contents of which are incorporated by reference herein.\nFIG. 6 illustrates measurement of real-time H2S production in rat aorta homogenate (Aorta homogenate), cultured rat vascular smooth muscle cells (VSMC) and living rat tail artery (Intact Tail Artery). After supplying each of the samples with the amino acid L-cysteine and the vitamin pyridoxal […] (PLP), both substrate and cofactor respectively, for the enzyme in the blood vessels that is responsible for H2S production, a rise in solution H2S concentration is observed."}, "[2]": {"conditions": "H2S→H++HS−; HS−→S2−+H+; cited from earlier work"}, "[3]": {"test_system": "mitochondria isolated from marine mussel gills", "test": "O2 consumption of a mitochondria suspension isolated from mussel gills in a closed chamber", "set-up": "species or system ribbed mussel Geukensia demissa", "conditions": "injections of 12.5 μM sulfide, FIG. 5A", "text": "The cellular organelle responsible for O2 consumption in biological cells is the mitochondrion. […] Such rapid kinetic events could not be adequately followed with standard colorimetric methods for H2S determination.\nMitochondria were isolated using the isolation procedure referenced in Parrino, V., D. W. Kraus and J. E. Doeller; ATP production from the oxidation of sulfide in gill mitochondria of the ribbed mussel Geukensia demissa; J. Exp. Biol.; (2000) 203:2209-2218, the contents of which are incorporated by reference herein. The mitochondria were suspended in an aqueous salt- and sucrose-containing buffer described in the Parrino reference.\nIn FIG. 5A two traces show the real-time concentrations of H2S and O2 in a closed chamber containing a mitochondria suspension isolated from mussel gills. The lower trace is H2S concentration and the upper trace is O2 concentration from a different sensor. […] As the chamber O2 is exhausted the sulfide is consumed much more slowly. In FIG. 5B the derivatives (H2S as lower trace and O2 as upper trace) of the traces in FIG. 5A are shown."}, "isolated rat aorta": {"test_system": "isolated rat aorta", "test": "Vessel tension organ bath with isolated rat aorta segments", "conditions": "aorta pre-contracted with 100 nM phenylephrine; FIG. 7", "method": "Individual segments, 4 mm long and 1.5 mm in diameter, are tethered between the bath floor and a sensitive force transducer above the bath in order to measure any vasorelaxation as a decrease in tension. An electrochemical H2S sensor (PHSS) is also immersed in the bath to simultaneously report the H2S concentration. The aorta vessels are first contracted by adding 100 nM phenylephrine, PE, to the bath to stimulate physiological vessel tension. […] Measurement of such an acute response of blood vessels to H2S concentration is only possible with the hydrogen sulfide detection apparatus comprising the PHSS."}}}
{"smiles": "N#CC[C@H](N)C(=O)O", "note": "[BCA, beta-cyanoalanine]", "values": [{"measurement": "effect on H2S production", "setting": "[1]", "value": "limit any further H2S production"}]}
{"smiles": "S", "note": "[H2S, Hydrogen sulfide]", "values": [{"measurement": "pKa", "setting": "[2]", "value": 6.88}]}
{"smiles": "[Na+].[Na+].[S-2]", "note": "[Na2S]", "values": [{"measurement": "effect on O2 consumption", "setting": "[3]", "value": "stimulate O2 consumption"}, {"measurement": "vessel tension (vasorelaxation)", "setting": "isolated rat aorta", "value": "immediate vasorelaxation event"}]}
{"smiles": "S", "note": "[HS^−]", "values": [{"measurement": "pKa", "setting": "[2]", "value": 14.15}]}
